Results as given in publication PMC6556873, “Rapid Covalent-Probe Discovery by Electrophile-Fragment Screening” (Journal of the American Chemical Society, 2019).
Where two headings read alike, the source gives them in different places.

Tests used:
BSA = target: T1, BSA (Bos taurus, UniProt P02769); design: Intact protein LC/MS covalent labelling, fragments in pools of five, 200 uM each, 4 °C; details: 24 h, 4 °C, pool of five; 200 µM; covalent
T1 construct: gene ALB

NUDT7 = target: T2, NUDT7 (Homo sapiens, UniProt P0C024); design: Intact protein LC/MS covalent labelling, fragments in pools of five, 200 uM each, 4 °C; details: 24 h, 4 °C, pool of five; 200 µM; covalent
T2 construct: residues 14-235, E. coli, pNIC28-Bsa4, N-terminal His6 tag removed by TEV, construct 26672 Da

OTUB2 (OTUB2A) = target: T3, OTUB2 (OTUB2A) (Homo sapiens, UniProt Q96DC9); design: Intact protein LC/MS covalent labelling, fragments in pools of five, 200 uM each, 4 °C; details: 24 h, 4 °C, pool of five; 200 µM; covalent
T3 construct: full length residues 1-234, E. coli BL21(DE3)-R3, His tag removed by TEV, construct 27312 Da
T3 sequence (Q96DC9 1-234): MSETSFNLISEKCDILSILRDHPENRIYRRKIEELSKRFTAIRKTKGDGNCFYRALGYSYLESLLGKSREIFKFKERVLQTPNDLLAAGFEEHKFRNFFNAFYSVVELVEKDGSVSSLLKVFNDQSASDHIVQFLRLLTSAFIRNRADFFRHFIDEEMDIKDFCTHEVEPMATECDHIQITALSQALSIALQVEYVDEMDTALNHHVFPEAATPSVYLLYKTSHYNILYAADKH

PCAF = target: T4, PCAF (Homo sapiens, UniProt Q92831); design: Intact protein LC/MS covalent labelling, fragments in pools of five, 200 uM each, 4 °C; details: 24 h, 4 °C, pool of five; 200 µM; covalent
T4 construct: gene KAT2B

in vitro [1] = experiment: in vitro; design: species or system CCD841, HEK293; details: human, hb2 cells, read-out: HB-2 Cells Viability (%)
in vitro [2] = experiment: in vitro; design: species or system HB2, HEK293; details: human, ccd841 cells
in vitro [3] = experiment: in vitro; design: species or system HB2, CCD841; details: human, hek293 cells

T2 sequence (P0C024 14-235): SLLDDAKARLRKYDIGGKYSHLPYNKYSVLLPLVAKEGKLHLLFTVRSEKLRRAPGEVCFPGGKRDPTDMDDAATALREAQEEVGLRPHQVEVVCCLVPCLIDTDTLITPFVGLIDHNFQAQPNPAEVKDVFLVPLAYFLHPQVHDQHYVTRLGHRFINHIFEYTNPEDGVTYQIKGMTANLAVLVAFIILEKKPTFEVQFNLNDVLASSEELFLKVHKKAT
T4 sequence (Q92831 whole entry, the tested form may be a part): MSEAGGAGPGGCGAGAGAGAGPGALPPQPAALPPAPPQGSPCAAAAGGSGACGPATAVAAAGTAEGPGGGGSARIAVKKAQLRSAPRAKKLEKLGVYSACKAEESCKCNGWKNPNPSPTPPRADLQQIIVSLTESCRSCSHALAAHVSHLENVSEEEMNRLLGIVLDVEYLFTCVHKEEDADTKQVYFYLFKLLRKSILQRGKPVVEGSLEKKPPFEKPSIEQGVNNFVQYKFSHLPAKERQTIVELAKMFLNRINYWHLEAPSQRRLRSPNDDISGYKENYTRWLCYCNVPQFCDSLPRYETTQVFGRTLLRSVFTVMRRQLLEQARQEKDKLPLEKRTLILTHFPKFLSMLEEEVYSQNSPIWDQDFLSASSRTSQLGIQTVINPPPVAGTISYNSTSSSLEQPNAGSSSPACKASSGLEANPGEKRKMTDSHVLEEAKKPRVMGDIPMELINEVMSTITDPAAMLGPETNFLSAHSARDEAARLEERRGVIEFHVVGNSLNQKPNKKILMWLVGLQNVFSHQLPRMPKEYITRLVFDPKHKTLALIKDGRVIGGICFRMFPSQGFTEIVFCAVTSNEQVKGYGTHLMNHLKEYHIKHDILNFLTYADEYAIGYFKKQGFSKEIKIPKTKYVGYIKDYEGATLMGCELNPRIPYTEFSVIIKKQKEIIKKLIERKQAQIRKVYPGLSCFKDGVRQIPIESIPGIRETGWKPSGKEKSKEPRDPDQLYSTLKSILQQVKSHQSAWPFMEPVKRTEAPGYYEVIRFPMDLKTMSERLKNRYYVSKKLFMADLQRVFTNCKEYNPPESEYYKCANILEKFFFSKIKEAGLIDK
T1 sequence (P02769 whole entry, the tested form may be a part): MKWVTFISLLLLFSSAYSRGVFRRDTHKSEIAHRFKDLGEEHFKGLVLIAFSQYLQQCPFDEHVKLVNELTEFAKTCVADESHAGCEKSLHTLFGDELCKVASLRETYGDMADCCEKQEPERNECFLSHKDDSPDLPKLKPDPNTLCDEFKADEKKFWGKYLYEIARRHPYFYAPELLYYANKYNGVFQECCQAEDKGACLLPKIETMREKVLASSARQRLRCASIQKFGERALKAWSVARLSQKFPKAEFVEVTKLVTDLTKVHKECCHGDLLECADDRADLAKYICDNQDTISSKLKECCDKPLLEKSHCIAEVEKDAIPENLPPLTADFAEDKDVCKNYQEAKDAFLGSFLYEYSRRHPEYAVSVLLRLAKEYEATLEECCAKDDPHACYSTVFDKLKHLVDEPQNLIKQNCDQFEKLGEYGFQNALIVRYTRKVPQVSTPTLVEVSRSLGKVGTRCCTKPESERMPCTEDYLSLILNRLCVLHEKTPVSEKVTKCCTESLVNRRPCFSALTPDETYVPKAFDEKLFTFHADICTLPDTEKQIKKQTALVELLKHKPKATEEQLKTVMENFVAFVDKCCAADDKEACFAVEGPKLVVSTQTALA

Row | Compound | BSA (BSA) | NUDT7 (NUDT7) | OTUB2 (OTUB2 (OTUB2A)) | PCAF (PCAF) | viability at 48 h, 10 µM (in vitro [1]) | viability at 48 h, 10 µM (in vitro [2]) | viability at 48 h, 10 µM (in vitro [3])
1 | O=C(CCl)NNC(=O)c1ccccc1Cl [PCM-0102954] | 0 | 0 | 0.8 | 0 | 91.9% | 72.3% | 91.3%
2 | C=CC(=O)Nc1cccc(C#N)c1 [PCM-0102956] | 0 | 0 | 0 | 0 | 104% | 102% | 74.5%
3 | Cc1ccc(CNC(=O)CCl)cc1F [PCM-0102959] | 0 | 0 | 0.5 | 0 | 86.6% | 84% | 62.6%
4 | C=CC(=O)N1CCC(C#N)(c2ccccn2)CC1 [PCM-0102960] | 0 | 0 | 0.06 | 0 | 102% | 110% | 104%
5 | C=CC(=O)Nc1cccc(Cl)c1 [PCM-0102961] | 0 | 0 | 0 | 0 | 97.3% | 103% | 80.4%
6 | C=CC(=O)NC(O)C(Cl)(Cl)Cl (stereo not drawn) [PCM-0102963] | 0 | 0 | 0 | 0 | 102% | 89.7% | 94.7%
7 | CC(=O)c1cccc(NC(=O)CCl)c1 [PCM-0102965] | 0 | 0 | 0.36 | 0 | 2.5% | 11% | 1.9%
8 | C=CC(=O)N1CCC(n2ncc3ccccc32)C1 (stereo not drawn) [PCM-0102966] | 0 | 0 | 0.42 | 0 | 105% | 95.1% | 86.3%
9 | Cc1sc(NC(=O)CCl)c(C)c1C [PCM-0102968] | 0 | 0 | 0 | 0 | 16.1% | 57.3% | 2.3%
10 | CS(C)(=O)=NC(=O)CCl [PCM-0102969] | 0 | 0 | 0 | 0 | 96.1% | 97.5% | 102%
11 | CC(c1cc2ccccc2o1)N(C)C(=O)CCl (stereo not drawn) [PCM-0102971] | 0 | 0.66 | 0 | 0 | 13.3% | 34.1% | 10.1%
12 | Cc1ccc(CNC(=O)CCl)s1 [PCM-0102973] | 0.19 | 0.11 | 0.75 | 0 | 98% | 90.8% | 106%
13 | CC(C)N(C)C(=O)C1CCN(C(=O)CCl)CC1 [PCM-0102974] | 0 | 0 | 0 | 0 | 86.7% | 84% | 79.8%
14 | CN(C(=O)CCl)c1nccs1 [PCM-0102975] | 0 | 0 | 0 | 0 | 99.8% | 118% | 97%
15 | COC(=O)c1cccc(NC(=O)CCl)n1 [PCM-0102977] | 0 | 0 | 0 | 0 | 103% | 101% | 105%
16 | CCN(C(=O)CCl)c1ccccc1C [PCM-0102980] | 0.07 | 0.43 | 0 | 0 | 93.4% | 85.7% | 66.1%
17 | CC(C)(C)OC(=O)CNC(=O)CCl [PCM-0102981] | 0.18 | 0 | 0 | 0 | 106% | 109% | 106%

Row | Compound | BSA (BSA) | NUDT7 (NUDT7) | OTUB2 (OTUB2 (OTUB2A)) | PCAF (PCAF) | viability at 48 h, 10 µM (in vitro [1]) | viability at 48 h, 10 µM (in vitro [2]) | viability at 48 h, 10 µM (in vitro [3])
18 | O=C(CCl)NNC(=O)c1ccco1 [PCM-0102985] | 0.2 | 0 | 0.27 | 0 | 96.9% | 89.7% | 100%
19 | C=CC(=O)NCc1cc2sccc2s1 [PCM-0102986] | 0 | 0 | 0.08 | 0 | 98.7% | 111% | 78.6%
20 | CN(Cc1cccc(C(F)(F)F)c1)C(=O)CCl [PCM-0102987] | 0 | 0.09 | 0 | 0 | 5.3% | 45.2% | 6.7%
21 | CN(Cc1nc2ccccc2s1)C(=O)CCl [PCM-0102988] | 0 | 0.3 | 0 | 0 | 9.3% | 42.8% | 2.9%
22 | O=C(CCl)Nc1ccc(Br)cc1 [PCM-0102992] | 0 | 0.11 | 0.08 | 0 | 12.2% | 52.9% | 4.4%
23 | C=CC(=O)Nc1ccc(OC)c(F)c1 [PCM-0102995] | 0 | 0 | 0 | 0 | 104% | 106% | 80.5%
24 | O=C(CCl)N1CCN(C(=O)C2COc3ccccc3O2)CC1 (stereo not drawn) [PCM-0102996] | 0 | 0 | 0.13 | 0 | 19.8% | 56.4% | 5.8%
25 | O=C(CCl)NNC(=O)CC1CCS(=O)(=O)C1 (stereo not drawn) [PCM-0102998] | 0 | 0 | 0.69 | 0 | 101% | 100% | 112%
26 | C=CC(=O)N1CCN(C(=O)C2COc3ccccc3O2)CC1 (stereo not drawn) [PCM-0102999] | 0 | 0 | 0 | 0 | 100% | 112% | 88.3%
27 | O=C(CCl)NC(=O)NC1CCCC1 [PCM-0103001] | 0 | 0 | 0 | 0 | 66.4% | 80.2% | 66.7%
28 | O=C(CCl)Nc1ccc(F)cc1F [PCM-0103004] | 0 | 0 | 0.26 | 0 | 54.2% | 62.1% | 32%
29 | C=CC(=O)N1Cc2ccccc2CC1c1nnc(CC)o1 (stereo not drawn) [PCM-0103005] | 0 | 0 | 0 | 0 | 96.8% | 79.4% | 93.2%
30 | O=C1CN(C(=O)CCl)CCN1 [PCM-0103008] | 0 | 0 | 0 | 0 | 95.3% | 92.8% | 86.5%
31 | CC(=O)c1cc2c(cc1NC(=O)CCl)OCO2 [PCM-0103010] | 0 | 0.14 | 0 | 0 | 59.9% | 86% | 69.5%
32 | O=C(CCl)NCC#Cc1cccc(C(F)(F)F)c1 [PCM-0103011] | 0 | 0 | 0.84 | 0 | 56.8% | 77.4% | 52.5%
33 | NS(=O)(=O)c1ccc(Cl)c(NC(=O)CCl)c1 [PCM-0103012] | 0 | 0 | 0.1 | 0 | 54.7% | 67.1% | 11.9%
